The results in this text go back to US11884708B2, “Stapled peptide inhibitors of nemo as potential anti-inflammatory and anti-cancer drugs” (INSTITUT PASTEUR, priority 2015, dated 2024).

Like-named read-outs stand apart in the source and are kept apart here. Where a SMILES comes first, the peptide text is derived from it. Bridges are numbered along the chain shown (N, C = ends). Where no end group is shown, it is not given here. [ ]: non-standard residue; d: D form. The star is where a group is joined. BODIPYFLEthylmaleimide = Cc1cc(C)n2c1C=C1C=CC(CCC(=O)NCCN3C(=O)CC(*)C3=O)=[N+]1[B-]2(F)F; R8 = C=CCCCCCC[C@@](C)(N)C(=O)O; S5 = C=CCCC[C@](C)(N)C(=O)O

One data set deals with CC2-LZ domain of NEMO (Mus musculus, UniProt O88522). Nature of the data set: Fluorescence anisotropy/polarization binding assay. The following applies: for Kd: fixed peptide concentration 0.1 μM.
Another data set has as its target NF-κB pathway (Mus musculus, UniProt O88522). The experiment in a line: NF-κB inhibition assay, LPS-stimulated 70Z3-C3 lacZ reporter cells. Type of data set: cell-based. Particulars: 70Z3-C3 cells, 2 h peptide then LPS 4 h, N.I = No inhibition observed; for IC50: read-out: IC 50 NF-κB inhibition. The text has this:
The stable cell line of pre-B lymphocyte 70Z3-C3 cells expressing the lacZ reporter gene under the control of NF-κB was previously described. OCI-Ly3 (ABC-DLBCL, MALT1 dependent) and OCI-Ly7 (GCB-DLBCL). U2932 (ABC-DLBCL, MALT1 independent) were purchased from DSMZ (Deutsche Sammlung von Mikroorganismen and Zellkulturen) and HLY1 (ABC-DLBCL, MALT1 independent). Jurkat T-cells were obtained after transduction of lentiviruses containing a NF-κB reporter luciferase gene as previously described. All cell lines were grown in RPMI 1640 medium supplemented with 10% FBS, 10 μg/ml of streptomycin, 10 U/ml of penicillin and kept at 37° C., in a 5% CO2 humidified incubator. 0.05 mM of β-mercaptoethanol was added for 70Z3-C3. Primary and secondary antibodies were as following: polyclonal rabbit anti NF-κB p65, (sc-372, Santa Cruz Biotechnology, Inc) Alexa-488 coupled goat anti-rabbit IgG1 (Invitrogen) NF-κB inhibition assay was almost similar to those previously described in [1], except that luminescence data were monitored with a Centro XS^3, LB960 luminometer (Berthold technologies.), which is more sensitive. All experiments were performed in duplicates in 96-well plates. […] After 4 h incubation, cells were centrifuged 7 min at 400×g, at 4° C.

The subject of a further data set is 70Z3-C3 cells. The experiment in a line: Cellular uptake of BODIPY-labeled peptides by FACS. The data set is classed as cell-based. Particulars: 10 μM labeled peptide, 2 h, 37° C. Here is the method:
2.2×10^5 cells in 100 μl of 70Z3-C3 were incubated with either 10 μM or with various doses of 10 μM, 5 μM and 1 μM of labeled-peptides at 37° C., 5% CO2. Similarly to fluorescence microscopy experiments, cells alone or incubated with BODIPY®-labeled BSA (ref) or BODIPY®-UBI devoid of the antennapedia cell penetrating sequence were used as negative control, whereas cells with BA-UBI [1] at 10 μM were used as positive control. After 2 h incubation, cells were washed 4 times with PBS at room temperature, and finally diluted 1:3 in PBS before subjected to FACS analysis. Along with the BODIPY® fluorophore the fluorescence intensity was recorded at 525±25 nm using the Gallios Flow cytometer (Beckman Coulter) to analyse each cells sample. Each internalization peptide was assessed by gating a population of 15,000 events and the data were analysed using Kaluza software version 1.2.
For determination of cellular uptake by flow cytometry, the BA-UBI-SAHND306-Q313 stapled peptide was first incubated with 2.2×10^5 70Z3-C3 cells in […] either at 4° C. or 37° C. for 2 h. Bodipy-labeled BSA, bodipy alone and bodipy-UBI were used as negative controls to verify the washing quality and efficient removal of any non-specific binding at the cell surface before FACS analysis. […] After 2 h of incubation, cells were washed four times with PBS at room temperature and diluted at 1:3 in PBS for FACS analysis. Samples were analyzed as previously described in the European patent (No: 15307137.8).

Data set [1] in a line: CD spectroscopy, α-helical content. The data set is classed as physicochemical. The following applies: 50 μM peptide, phosphate buffer pH 7.0, UBI in TFE taken as 100%.
Data set [2] in a line: Temperature-induced denaturation followed by CD. Type of data set: physicochemical. Particulars: 30 μM or 300 μM, ΔCp ≈ 0. As for the experimental part:
Temperature-induced denaturation experiments were performed by measuring the ellipticity at 222 nm from 1° C. to 95° C. in 1° C. steps, at a rate of 1° C./min, with a 2 nm bandwidth. Thermodynamic parameters including the melting temperature (Tm) and the van't Hoff enthalpy change at the melting temperature (ΔHm) were determined by fitting the denaturation curves with the Gibbs-Helmholtz equation as described elsewhere, [10]. The heat capacity change (ΔCp) was assumed to be 0 as judged by ΔHm which yielded similar values within 10% at two independent peptide concentrations (30 and 300 μM). The ellipticity was converted to differential extinction coefficient Δε (M^−1·cm^−1) per residue taking into account the peptide concentration determined by amino acid analysis.
Thermal stability of the peptides was also investigated by performing thermal denaturation profiles followed by CD (FIGS. 1 C and D and Table III). […] Indeed, the helicity of UBI-Aib (49%) is only 1.16-fold increased at 1° C. compared to UBI (42%), while its melting temperature (Tm=−8° C.) is 2.25 times higher than that of UBI (Tm=−18° C.).

CC2-LZ domain of NEMO, sequence (O88522 242-343 limits assumed): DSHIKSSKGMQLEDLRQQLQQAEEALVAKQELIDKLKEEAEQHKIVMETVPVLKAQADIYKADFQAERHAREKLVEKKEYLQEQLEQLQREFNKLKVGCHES
NF-κB pathway, sequence (O88522 whole entry): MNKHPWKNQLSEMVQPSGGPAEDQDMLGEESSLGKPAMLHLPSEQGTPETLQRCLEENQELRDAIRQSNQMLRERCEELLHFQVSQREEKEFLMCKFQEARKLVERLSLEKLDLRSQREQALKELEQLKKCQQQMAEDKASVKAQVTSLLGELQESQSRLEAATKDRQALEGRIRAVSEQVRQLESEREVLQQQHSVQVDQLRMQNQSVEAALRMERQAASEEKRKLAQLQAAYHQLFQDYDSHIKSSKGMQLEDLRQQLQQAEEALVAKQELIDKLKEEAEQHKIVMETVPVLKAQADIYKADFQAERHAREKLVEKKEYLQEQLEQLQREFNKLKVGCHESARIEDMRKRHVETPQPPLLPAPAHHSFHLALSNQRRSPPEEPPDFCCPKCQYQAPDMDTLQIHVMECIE

For the molecule `CC[C@H](C)[C@H](NC(=O)[C@H](CCCCN)NC(=O)[C@@H](NC(=O)[C@H](CCC(N)=O)NC(=O)[C@H](CCCNC(=N)N)NC(=O)[C@H](CSC1CC(=O)N(CCNC(=O)CCC2=[N+]3C(=Cc4c(C)cc(C)n4[B-]3(F)F)C=C2)C1=O)NC(C)=O)[C@@H](C)CC)C(=O)N[C@@H](Cc1c[nH]c2ccccc12)C(=O)N[C@@H](Cc1ccccc1)C(=O)N[C@@H](CCC(N)=O)C(=O)N[C@@H](CC(N)=O)C(=O)N[C@@H](CCCNC(=N)N)C(=O)N[C@@H](CCCNC(=N)N)C(=O)N[C@@H](CCSC)C(=O)N[C@@H](CCCCN)C(=O)N[C@@H](Cc1c[nH]c2ccccc12)C(=O)N[C@@H](CCCCN)C(=O)N[C@@H](CCCCN)C(=O)N[C@@H](CC(C)C)C(=O)N[C@@H](CCCCN)C(=O)N[C@@H](C)C(=O)N[C@@H](CCC(N)=O)C(=O)N[C@@H](C)C(=O)N[C@]1(C)CCCCCCC=CCCC[C@@](C)(C(=O)N[C@@H](C)C(=O)N[C@@H](CCC(=O)O)C(=O)N[C@@H](CCCNC(=N)N)C(=O)N[C@@H](Cc2c[nH]cn2)C(=O)N[C@@H](C)C(=O)N[C@@H](CCCNC(=N)N)C(=O)N[C@@H](CCC(=O)O)C(=O)N[C@@H](CCCCN)C(N)=O)NC(=O)[C@H](Cc2ccccc2)NC(=O)[C@H](CCCNC(=N)N)NC(=O)[C@H](C)NC(=O)[C@H](CCCCN)NC(=O)[C@H](Cc2ccc(O)cc2)NC(=O)[C@H]([C@@H](C)CC)NC1=O` (single isomer, unassigned) [A-UBI-SAHN D306-Q313 (A)], at CC2-LZ domain of NEMO (peptides with antennapedia, read-out: KD), the Kd amounted to 60 nM. Moreover, at NF-κB pathway, the IC50 was 600 nM.
For the molecule “LKAQAX2IYKARFX5AERHAREK (LKAQA[R8]IYKARF[S5]AERHAREK; staple 6-13) [UBI-SAHN D306-Q313]”, the “IC 50 NF-κB inhibition” value with NF-κB pathway is “N.I*”. In addition, in the data set on 70Z3-C3 cells, the “FACS peak median, first or only peak” value came to 8 and the “FACS peak median, second peak” value was found to be 52.
`CC[C@H](C)[C@H](NC(=O)[C@H](CC(=O)O)NC(=O)[C@H](C)NC(=O)[C@H](CCC(N)=O)NC(=O)[C@H](C)NC(=O)[C@H](CCCCN)NC(=O)[C@H](CC(C)C)NC(=O)[C@H](CSC1CC(=O)N(CCNC(=O)CCC2=[N+]3C(=Cc4c(C)cc(C)n4[B-]3(F)F)C=C2)C1=O)NC(C)=O)C(=O)N[C@@H](Cc1ccc(O)cc1)C(=O)N[C@@H](CCCCN)C(=O)N[C@@]1(C)CCCC=CCCC[C@@](C)(C(=O)N[C@@H](CCC(=O)O)C(=O)N[C@@H](CCCNC(=N)N)C(=O)N[C@@H](Cc2c[nH]cn2)C(=O)N[C@@H](C)C(=O)N[C@@H](CCCNC(=N)N)C(=O)N[C@@H](CCC(=O)O)C(=O)N[C@@H](CCCCN)C(N)=O)NC(=O)[C@H](CCC(N)=O)NC(=O)[C@H](Cc2ccccc2)NC(=O)[C@H](CCCNC(=N)N)NC1=O` (stereo partly shown) [UBI-SAHN A310-A314, LKAQADIYKX4RFQX6ERHAREK] (Ac-C(BODIPYFLEthylmaleimide)LKAQADIYK[S5]RFQ[S5]ERHAREK-NH2; staple 11-15): the “α-helical content at 1° C.” value in data set [1] amounted to 65%. The ΔS in data set [2] is recorded as −11 cal. mol^−1.K^−1. The Tm in data set [2] (thermal denaturation by CD) was 15 ± 0.3 C°. In data set [2] (van't Hoff enthalpy change at Tm), the ΔH was -3.2 kcal/mol. The Kd at CC2-LZ domain of NEMO (read-out: Binding affinity (FP) at 0.1 μM) is roughly 360000 nM. Further, the “Binding affinity (FP) at 10 μM” value at CC2-LZ domain of NEMO (fixed peptide concentration 10 μM) is “Very weak”. For the same molecule, the “IC 50 NF-κB inhibition” value against NF-κB pathway is given as “N.I*”.
As to `CC[C@H](C)[C@@H]1NC(=O)[C@H](CC(=O)O)NC(=O)[C@H](C)NC(=O)[C@H](CCC(N)=O)NC(=O)[C@](C)(NC(=O)[C@H](CCCCN)NC(=O)[C@H](CC(C)C)NC(=O)[C@H](CCCCN)NC(=O)[C@H](CCCCN)NC(=O)[C@H](Cc2c[nH]c3ccccc23)NC(=O)[C@H](CCCCN)NC(=O)[C@H](CCSC)NC(=O)[C@H](CCCNC(=N)N)NC(=O)[C@H](CCCNC(=N)N)NC(=O)[C@H](CC(N)=O)NC(=O)[C@H](CCC(N)=O)NC(=O)[C@H](Cc2ccccc2)NC(=O)[C@H](Cc2c[nH]c3ccccc23)NC(=O)[C@@H](NC(=O)[C@H](CCCCN)NC(=O)[C@@H](NC(=O)[C@H](CCC(N)=O)NC(=O)[C@H](CCCNC(=N)N)NC(=O)[C@H](CSC2CC(=O)N(CCNC(=O)CCC3=[N+]4C(=Cc5c(C)cc(C)n5[B-]4(F)F)C=C3)C2=O)NC(C)=O)[C@@H](C)CC)[C@@H](C)CC)CCCCCCC=CCCC[C@@](C)(C(=O)N[C@@H](CCCNC(=N)N)C(=O)N[C@@H](Cc2ccccc2)C(=O)N[C@@H](CCC(N)=O)C(=O)N[C@@H](C)C(=O)N[C@@H](CCC(=O)O)C(=O)N[C@@H](CCCNC(=N)N)C(=O)N[C@@H](Cc2c[nH]cn2)C(=O)N[C@@H](C)C(=O)N[C@@H](CCCNC(=N)N)C(=O)N[C@@H](CCC(=O)O)C(=O)N[C@@H](CCCCN)C(N)=O)NC(=O)[C@H](CCCCN)NC(=O)[C@H](Cc2ccc(O)cc2)NC1=O` (single isomer, unassigned) [A-UBI-SAHN A303-A310 (B)], the IC50 at NF-κB pathway stood at 600 nM.
Consider “LKX1QADIYKX4RFQAERHAREK [UBI-SAHN A303-A310]”, for which the “IC 50 NF-κB inhibition” value with NF-κB pathway is given as “N.I*”. Besides, the “FACS peak median, first or only peak” value in the data set with 70Z3-C3 cells worked out at 8.
Consider `CC[C@H](C)[C@H](NC(=O)[C@H](CC(=O)O)NC(=O)C(C)(C)NC(=O)[C@H](CCC(N)=O)NC(=O)C(C)(C)NC(=O)[C@H](CCCCN)NC(=O)[C@@H](N)CC(C)C)C(=O)N[C@@H](Cc1ccc(O)cc1)C(=O)N[C@@H](CCCCN)C(=O)NC(C)(C)C(=O)N[C@@H](CCCNC(=N)N)C(=O)N[C@@H](Cc1ccccc1)C(=O)N[C@@H](CCC(N)=O)C(=O)NC(C)(C)C(=O)N[C@@H](CCC(=O)O)C(=O)N[C@@H](CCCNC(=N)N)C(=O)N[C@@H](Cc1c[nH]cn1)C(=O)NC(C)(C)C(=O)N[C@@H](CCCNC(=N)N)C(=O)N[C@@H](CCC(=O)O)C(=O)N[C@@H](CCCCN)C(=O)O` [UBI-AIB, LKAibQAibDIYKAibRFQAibERHAibREK] (HELM PEPTIDE1{L.K.[Aib].Q.[Aib].D.I.Y.K.[Aib].R.F.Q.[Aib].E.R.H.[Aib].R.E.K}$$$$V2.0), for which, on NF-κB pathway, the “IC 50 NF-κB inhibition” value was “N.I*”.
